From article PMC4897634, “Design of an α-helical antimicrobial peptide with improved cell-selective and potent anti-biofilm activity” (Scientific Reports, 2016)
Where no end group is shown, it is not given here.

Tests used:
[1] = tested on: Gram-negative bacteria; assay type: cell-based, E. coli, P. aeruginosa, K. pneumoniae; settings: ratio of MHC to GM, Gram-negative bacteria
Procedure: (§1) The antimicrobial activities of the peptides, indicated by the minimum inhibitory concentrations (MIC), were determined against a range of Gram-negative (Table 3) and Gram-positive bacterial strains (Table 4). The geometric mean of MIC values (GM) from the three strains was calculated to provide an overall evaluation of antimicrobial activity.
(§2) The therapeutic index (TI) is defined as the ratio of the minimum haemolytic concentration (MHC) of peptides to the GM of peptides, and this value was used to evaluate cell selectivity of peptides towards the negatively charged region of bacterial cell membranes over the zwitterionic mammalian cell membranes.
(§3) The antibacterial activities of the peptides against three Gram-negative bacteria and three Gram-positive bacteria strains were measured using a modified version of the Clinical Laboratory and Standards Institute (CLSI) broth microdilution method as described previously. Three Gram-negative bacteria, Escherichia coli (1.8732), Pseudomonas aeruginosa (1.2421), and Klebsiella pneumonia (1.1736), and three Gram-positive bacteria, Staphylococcus aureus (1.8721), Staphylococcus epidermidis (1.4260), and Bacillus subtilis (1.3376), were purchased from the China General Microbiological Culture Collection Centre (CGMCC). Briefly, bacteria were grown in liquid LB medium (tryptone, 10 g/L, yeast extract, 5 g/L and NaCl, 10 g/L) at 37 °C to mid-log phase, and the bacteria were diluted to 1 × 10^6 colony-forming units (CFU)/ml. The peptides were serially diluted with phosphate-buffered saline (PBS), and 50 μl diluted peptides were added to 50 μl of the bacterial suspension in 96-well plate (Corning Inc., Lowell, MA, USA). After incubation at 37 °C for 18 to 20 hours, the absorbance of each well was recorded using a multi-well microplate reader (SpectraMax M5; Molecular Devices, Sunnyvale, CA, USA) at 600 nm. The lowest concentration at which the peptide inhibited complete growth of the bacteria was taken as the minimal inhibitory concentration (MIC).

[2] = tested on: Acinetobacter baumannii; assay: MIC against biofilm-producing clinical isolate; assay type: cell-based; settings: biofilm-producing strain, broth microdilution as for the other strains
Procedure: The antibacterial activities of the peptides against three Gram-negative bacteria and three Gram-positive bacteria strains were measured using a modified version of the Clinical Laboratory and Standards Institute (CLSI) broth microdilution method as described previously. Three Gram-negative bacteria, Escherichia coli (1.8732), Pseudomonas aeruginosa (1.2421), and Klebsiella pneumonia (1.1736), and three Gram-positive bacteria, Staphylococcus aureus (1.8721), Staphylococcus epidermidis (1.4260), and Bacillus subtilis (1.3376), were purchased from the China General Microbiological Culture Collection Centre (CGMCC). […] After incubation at 37 °C for 18 to 20 hours, the absorbance of each well was recorded using a multi-well microplate reader (SpectraMax M5; Molecular Devices, Sunnyvale, CA, USA) at 600 nm. […]
Biofilm attachment assays against Acinetobacter baumannii were performed using a previously described method with some modifications. […] The MICs of AMPs against A. baumannii were evaluated as described above. […] The wells were allowed to dry, and the crystal violet-stained well was re-solubilized with 200 μl of 95% ethanol and shaken for 10 min followed by measurement of the absorbance at 595 nm on a microplate reader (SpectraMax M5; Molecular Devices, Sunnyvale, CA, USA). […]

[3] = tested on: human erythrocytes; assay: Haemolytic activity; assay type: cell-based; settings: 37 °C, 30 min; for haemolysis rate: human erythrocytes, relative to 0.1% Triton X-100; for MHC, minimum haemolytic concentration: concentration causing 10% haemolysis of hRBC, 200 μM used when no haemolysis detectable at 100 μM
Procedure: Haemolytic activity of the peptides was assayed by a standard procedure with slight modification. Fresh human erythrocytes were washed three times and resuspended at 1.25% haematocrit in PBS. Forty microlitres PBS-diluted peptide solution was added to a V-bottom 96-well plate (Corning Inc., Lowell, MA, USA), and 160 μl of erythrocytes was added. After incubation at 37 °C for 30 min, the samples were centrifuged, and the absorbance of the supernatant was measured at 450 nm using a multi-well microplate reader (SpectraMax M5; Molecular Devices, Sunnyvale, CA, USA) and compared with the 100% haemolysis caused by 0.1% Triton X-100. The percentage of haemolysis was calculated according to the equation (2): […]

[4] = tested on: Gram-positive bacteria; assay type: cell-based, S. aureus, S. epidermidis, B. subtilis; settings: ratio of MHC to GM, Gram-positive bacteria
Procedure: as §1, §2, §3

[5] = tested on: L929 mouse fibroblast cells; assay: Cytotoxicity, MTT assay; assay type: cell-based; settings: 1 hour
Procedure: The toxicity of the peptides against L929 mouse fibroblast cells was assessed by a standard MTT assay. L929 mouse fibroblast cells from ATCC (Manassas, VA, USA) were maintained in our laboratory. L929 cells were cultured in RPMI 1640 supplemented with 10% (v/v) FBS, 2 mM L-glutamine, 100 U/ml penicillin and […] streptomycin and maintained in a humidified incubator with 5% CO2 at 37 °C. L929 cells (5 × 10^3cells/well) were seeded in 96-well plates (Corning Inc., Lowell, MA, USA) and incubated overnight. Diluted peptides were added to L929 cells and incubated for 1 hour. Then, 20 μl of MTT (5 mg/ml) solution was added and incubated for 4 hours. The medium was removed, and 150 μl of DMSO was added to each well to dissolve the formazan crystals. The absorbance was measured at 490 nm on a microplate reader (SpectraMax M5; Molecular Devices, Sunnyvale, CA, USA). Cell viabilities were calculated by using the equation (3): […]

[6] = tested on: Pseudomonas aeruginosa (1.2421); assay: Antimicrobial activity, broth microdilution MIC; assay type: cell-based; settings: modified CLSI broth microdilution, LB medium, 1 × 10^6 CFU/ml, 37 °C, 18 to 20 hours, absorbance 600 nm
Procedure: as §3

[7] = tested on: Staphylococcus aureus (1.8721); assay: Antimicrobial activity, broth microdilution MIC; assay type: cell-based; settings: modified CLSI broth microdilution, LB medium, 1 × 10^6 CFU/ml, 37 °C, 18 to 20 hours, absorbance 600 nm
Procedure: as §3

[8] = tested on: Bacillus subtilis (1.3376); assay: Antimicrobial activity, broth microdilution MIC; assay type: cell-based; settings: modified CLSI broth microdilution, LB medium, 1 × 10^6 CFU/ml, 37 °C, 18 to 20 hours, absorbance 600 nm
Procedure: as §3

[9] = tested on: Staphylococcus epidermidis (1.4260); assay: Antimicrobial activity, broth microdilution MIC; assay type: cell-based; settings: modified CLSI broth microdilution, LB medium, 1 × 10^6 CFU/ml, 37 °C, 18 to 20 hours, absorbance 600 nm
Procedure: as §3

[10] = tested on: Klebsiella pneumonia (1.1736); assay: Antimicrobial activity, broth microdilution MIC; assay type: cell-based; settings: modified CLSI broth microdilution, LB medium, 1 × 10^6 CFU/ml, 37 °C, 18 to 20 hours, absorbance 600 nm
Procedure: as §3

[11] = tested on: Escherichia coli (1.8732); assay: Antimicrobial activity, broth microdilution MIC; assay type: cell-based; settings: modified CLSI broth microdilution, LB medium, 1 × 10^6 CFU/ml, 37 °C, 18 to 20 hours, absorbance 600 nm
Procedure: as §3

Row | Substance | TI, therapeutic index [1] | MIC Acinetobacter baumannii [2] | haemolysis rate ([3]; 100 μM peptide) | TI, therapeutic index [4] | viability of treated L929 cells ([5]; 50 μM peptide) | MIC P. aeruginosa [6] | MIC S. aureus [7] | MIC B. subtilis [8] | MIC S. epidermidis [9] | MIC K. pneumoniae [10] | MIC E. coli [11] | haemolysis rate ([3]; 3.13 μM peptide) | MHC, minimum haemolytic concentration [3] | viability of treated L929 cells ([5]; 6.25 μM peptide)
1 | RIGSILGRLAKGLPTLKSWIKNR-NH2 [A(A1R, A8R, I17K)] | 16 | 12.5 µM | 4.4% | 10.08 | 31.4% | 12.5 µM | 100 µM | 12.5 µM | 6.25 µM | 12.5 µM | 12.5 µM | – | – | –
2 | AIGSILGALAKGLPTLISWIKNR-NH2 [AR-23, reference compound] | 0.2 | 12.5 µM | – | 0.79 | – | 12.5 µM | 6.25 µM | 3.13 µM | 3.13 µM | 12.5 µM | 25 µM | 37.9% | 3.13 µM | approximately 10%
3 | AIGSILGRLAKGLPTLKSWIKNR-NH2 [A(A8R, I17K)] | 4 | – | – | 5.04 | 21.1% | 25 µM | 100 µM | 12.5 µM | 6.25 µM | 25 µM | 25 µM | – | 100 µM | –
